In the supplement of paper PMC10307832:

What follows are cell lines tested with COc1nc(N)nc2c1ncn2[C@@H]1O[C@H](CO)[C@@H](O)[C@@H]1O [Nelarabine] + N=C(N)NC(=N)NCCc1ccccc1 [Phenformin] (partner 250 µM) (assay: relative viability (nuclei count vs DMSO), 5 days (fraction); higher = more cells survive). Settings: first compound 0.01 µM.
How it was run: (§1)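 Lung cancer cell lines were pin-tool dosed in 1536-well plates on the day after seeding, with either a lone drug or a fixed anchor-drug dose plus five library-drug doses (not always all listed) in √10 steps. Nuclei were counted on 4× images after 5 days. Relative viability is the ratio of treated-well to vehicle-well nuclei counts, with each value a median of duplicate plates.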

Cell Line	relative viability
NCI-H727	0.604
NCI-H838	0.701
NCI-H1355	0.442
NCI-H1395	0.487
NCI-H1437	0.304
NCI-H1650	0.39
NCI-H1651	0.362
NCI-H1666	0.576
NCI-H1734	0.446
NCI-H1755	0.63
NCI-H1792	0.211
NCI-H1793	0.45
NCI-H1915	0.378
NCI-H1944	0.209
NCI-H1975	0.472
NCI-H1993	0.527

Cell Line	relative viability
NCI-H2009	0.555
NCI-H2023	0.395
NCI-H2085	0.73
NCI-H2087	0.577
NCI-H2126	0.593
NCI-H2170	0.393
NCI-H2228	0.434
NCI-H2342	0.554
NCI-H2347	0.45
NCI-H2405	0.385
NCI-H3122	0.381
PC-3 [JPC-3]	0.475
PC-14	0.645
RERF-LC-KJ	0.436
SK-LU-1	0.564

Same assay, conditions: first compound 0.03162 µM

Cell Line	relative viability
NCI-H727	0.589
NCI-H838	0.549
NCI-H1355	0.413
NCI-H1395	0.401
NCI-H1437	0.309
NCI-H1650	0.427
NCI-H1651	0.329
NCI-H1666	0.607
NCI-H1734	0.388
NCI-H1755	0.548
NCI-H1792	0.4
NCI-H1793	0.366
NCI-H1915	0.315
NCI-H1944	0.195
NCI-H1975	0.389
NCI-H1993	0.486

Cell Line	relative viability
NCI-H2009	0.518
NCI-H2023	0.357
NCI-H2085	0.703
NCI-H2087	0.408
NCI-H2126	0.545
NCI-H2170	0.39
NCI-H2228	0.244
NCI-H2342	0.522
NCI-H2347	0.574
NCI-H2405	0.395
NCI-H3122	0.356
PC-3 [JPC-3]	0.437
PC-14	0.46
RERF-LC-KJ	0.427
SK-LU-1	0.364

Same assay, conditions: first compound 0.1 µM

Cell Line	relative viability
NCI-H727	0.642
NCI-H838	0.608
NCI-H1355	0.418
NCI-H1395	0.474
NCI-H1437	0.318
NCI-H1650	0.379
NCI-H1651	0.46
NCI-H1666	0.569
NCI-H1734	0.412
NCI-H1755	0.547
NCI-H1792	0.261
NCI-H1793	0.315
NCI-H1915	0.367
NCI-H1944	0.229
NCI-H1975	0.4
NCI-H1993	0.448
NCI-H2009	0.479
NCI-H2023	0.4
NCI-H2085	0.669
NCI-H2087	0.397
NCI-H2126	0.51
NCI-H2170	0.388
NCI-H2342	0.503
NCI-H2347	0.379
NCI-H2405	0.357
PC-3 [JPC-3]	0.473
PC-14	0.67
RERF-LC-KJ	0.403
SK-LU-1	0.553

Same assay, conditions: first compound 0.3162 µM

Cell Line	relative viability
NCI-H727	0.508
NCI-H838	0.595
NCI-H1355	0.433
NCI-H1395	0.455
NCI-H1437	0.302
NCI-H1650	0.436
NCI-H1651	0.353
NCI-H1666	0.536
NCI-H1734	0.366
NCI-H1755	0.659
NCI-H1792	0.3
NCI-H1793	0.472
NCI-H1915	0.371
NCI-H1944	0.195
NCI-H1975	0.399
NCI-H1993	0.499

Cell Line	relative viability
NCI-H2009	0.532
NCI-H2023	0.371
NCI-H2085	0.69
NCI-H2087	0.457
NCI-H2126	0.508
NCI-H2170	0.421
NCI-H2228	0.345
NCI-H2342	0.67
NCI-H2347	0.445
NCI-H2405	0.383
NCI-H3122	0.412
PC-3 [JPC-3]	0.472
PC-14	0.556
RERF-LC-KJ	0.403
SK-LU-1	0.679

Same assay, conditions: first compound 1 µM

Cell Line	relative viability
NCI-H727	0.682
NCI-H838	0.628
NCI-H1355	0.455
NCI-H1395	0.423
NCI-H1437	0.325
NCI-H1650	0.445
NCI-H1651	0.355
NCI-H1666	0.606
NCI-H1734	0.38
NCI-H1755	0.619
NCI-H1792	0.323
NCI-H1793	0.406
NCI-H1915	0.367
NCI-H1944	0.203
NCI-H1975	0.432
NCI-H1993	0.503

Cell Line	relative viability
NCI-H2009	0.47
NCI-H2023	0.371
NCI-H2085	0.767
NCI-H2087	0.569
NCI-H2126	0.517
NCI-H2170	0.383
NCI-H2228	0.293
NCI-H2342	0.566
NCI-H2347	0.381
NCI-H2405	0.26
NCI-H3122	0.358
PC-3 [JPC-3]	0.459
PC-14	0.447
RERF-LC-KJ	0.425
SK-LU-1	0.499

The cell lines below were run with C=CCn1c(=O)c2cnc(Nc3ccc(N4CCN(C)CC4)cc3)nc2n1-c1cccc(C(C)(C)O)n1 [Adavosertib] + CC(=O)c1c(C)c2cnc(Nc3ccc(N4CCNCC4)cn3)nc2n(C2CCCC2)c1=O [Palbociclib] (partner 0.5 µM) in the same assay as above. Settings: first compound 0.01 µM.
How it was run: as §1

Cell Line	relative viability
NCI-H727	0.584
NCI-H838	0.232
NCI-H1355	0.417
NCI-H1395	0.616
NCI-H1437	0.333
NCI-H1650	0.295
NCI-H1651	0.499
NCI-H1666	0.613
NCI-H1734	0.332
NCI-H1755	0.449
NCI-H1793	0.293
NCI-H1915	0.535
NCI-H1944	0.298
NCI-H1975	0.551
NCI-H1993	0.656
NCI-H2009	0.195
NCI-H2023	0.412
NCI-H2085	0.479
NCI-H2087	0.218
NCI-H2126	0.352
NCI-H2170	0.403
NCI-H2342	0.5
NCI-H2347	0.41
NCI-H3122	0.216
PC-14	0.508
RERF-LC-KJ	0.977
SK-LU-1	0.405

Same assay, conditions: first compound 0.03162 µM

Cell Line	relative viability
NCI-H727	0.699
NCI-H838	0.211
NCI-H1355	0.401
NCI-H1395	0.657
NCI-H1437	0.313
NCI-H1650	0.34
NCI-H1651	0.523
NCI-H1666	0.64
NCI-H1734	0.326
NCI-H1755	0.41
NCI-H1792	0.661
NCI-H1793	0.293
NCI-H1915	0.564
NCI-H1944	0.317
NCI-H1975	0.559
NCI-H1993	0.701

Cell Line	relative viability
NCI-H2009	0.2
NCI-H2023	0.377
NCI-H2085	0.458
NCI-H2087	0.217
NCI-H2126	0.34
NCI-H2170	0.419
NCI-H2228	0.746
NCI-H2342	0.526
NCI-H2347	0.419
NCI-H2405	0.492
NCI-H3122	0.198
PC-3 [JPC-3]	0.502
PC-14	0.577
RERF-LC-KJ	1.07
SK-LU-1	0.467

Same assay, conditions: first compound 0.1 µM

Cell Line	relative viability
NCI-H727	0.637
NCI-H838	0.224
NCI-H1355	0.395
NCI-H1395	0.591
NCI-H1437	0.305
NCI-H1650	0.289
NCI-H1651	0.572
NCI-H1666	0.662
NCI-H1734	0.353
NCI-H1755	0.443
NCI-H1792	0.779
NCI-H1793	0.298
NCI-H1915	0.645
NCI-H1944	0.317
NCI-H1975	0.488
NCI-H1993	0.725

Cell Line	relative viability
NCI-H2009	0.258
NCI-H2023	0.331
NCI-H2085	0.519
NCI-H2087	0.263
NCI-H2126	0.352
NCI-H2170	0.399
NCI-H2228	0.62
NCI-H2342	0.509
NCI-H2347	0.444
NCI-H2405	0.555
NCI-H3122	0.184
PC-3 [JPC-3]	0.28
PC-14	0.516
RERF-LC-KJ	1.14
SK-LU-1	0.398

Same assay, conditions: first compound 0.3162 µM

Cell Line	relative viability
NCI-H727	0.658
NCI-H838	0.213
NCI-H1355	0.408
NCI-H1395	0.674
NCI-H1437	0.35
NCI-H1650	0.293
NCI-H1651	0.612
NCI-H1666	0.699
NCI-H1734	0.375
NCI-H1755	0.446
NCI-H1792	0.829
NCI-H1793	0.275
NCI-H1915	0.644
NCI-H1944	0.319
NCI-H1975	0.608
NCI-H1993	0.934
NCI-H2009	0.215
